From US20030045485A1, “P53-MEDIATED APOPTOSIS FOR THE THERAPEUTIC TREATMENT OF DISEASES” (priority 1993, published 2003) come the findings set out here.

The test system of one data set is parental DP16-1 cells. Description: DMSO-induced differentiation of parental DP16-1 cells, benzidine staining. It is filed as cell-based, mouse. The note with it: two days of exposure to medium containing DMSO. From the text:
(§1) MEL cell lines invariability contain mutations of the p53 tumor suppressor gene and express either negligible or mutant p53 protein. During MEL differentiation there is a biphasic decline in expression of the c-myc oncogene although enforced expression of c-myc blocks this differentiation. To determine the relationship between mutant p53 and c-myc in cell differentiation, DP16-1 cells (which have deleted both p53 alleles) were transfected with an amplifiable plasmid vector containing a full-length mouse c-myc cDNA with or without plasmid vector containing a mutant p53 cDNA (p53^pro193). The exogenous c-myc cDNA is transcribed in MEL cells and results in increased expression of c-myc mRNA and protein during DMSO-induced differentiation. Extent of differentiation was monitored by benzidine staining (FIGS. 17A and 17B). When MEL cells are exposed to DMSO, differentiation normally occurs over a five day period. In contrast to the parental DP16-1 cells or DP16-1 cells transfected with pSV2LZquad, c-myc transfected DP16-1 cells or underwent accelerated differentiation. […] Furthermore, c-myc transfected DP16-1 cells stopped growing and eventually lost viability when grown in medium containing 1.6% DMSO. Coincident expression of p53^pro193 with c-myc abolished the accelerated DMSO-induced differentiation seen in cells which expressed c-myc alone.

In data set [1] the test system is p53^tsneo transfected DP16-1 cells. Description: Viability of p53^tsneo transfectants in media containing 1.6% DMSO. It is filed as cell-based, mouse. The note with it: 37.5° C., logarithmically growing transfectants. The method, then:
DP16-1 MEL cells were grown in Dulbecco modified minimal essential medium (DMEM) supplemented with 10% calf serum, 2 mM glutamine, 100 U of penicillin per ml, and 100 μg of […] per ml. DNA transfections were performed by electroporation (Prochownik et al., supra). Transfection mixes consisted of 1×10^7 cells in 400 μl transfection buffer (272 mM sucrose, 7 mM phosphate (pH 7.4), 1 mM MgCl2) with either 10 μg p53^tsneo, or 10 μg pSV-2neo, linearized with Bam HI. Transfected cells were selected in media containing 1 mg/ml geneticin (G418; GIBCO). Single-cell clones were isolated by limiting cell dilution in 96-well microtiter plates. To characterize the consequences of enforced expression of p53 on differentiation, logarithmically growing transfectants were exposed to media containing 1.6% dimethyl sulfoxide (DMSO) and incubated at 37.5° C. Media was changed every other day. Cells underwent growth arrest and subsequently died over a period of 48-96 hours (FIG. 8A; DP16-1 cells, ______, p53^tsneo transfected DP16-1 cells, - - -, and DP16-1 cells co-transfected with c-myb and p53^tsneo, _._._). Viable cells were isolated by centrifugation through Ficoll-paque (Pharmacia). […] This is in contrast to untransfected control DP16-1 cells which, when grown in media containing DMSO, downregulate c-myb mRNA and differentiate while remaining viable (FIG. 8A & 8B). […]

For the next data set, the system named is p53^tsneo clones. In words: DMSO-induced differentiation of p53^tsneo clones, benzidine staining. It is filed as cell-based, mouse. The note with it: 5 days exposure to 1.6% DMSO at 37.5° C., viable cells isolated through Ficoll-paque. How it is done: To characterize the consequences of enforced expression of p53 on differentiation, logarithmically growing transfectants were exposed to media containing 1.6% dimethyl sulfoxide (DMSO) and incubated at 37.5° C. Media was changed every other day. Cells underwent growth arrest and subsequently died over a period of 48-96 hours (FIG. 8A; DP16-1 cells, ______, p53^tsneo transfected DP16-1 cells, - - -, and DP16-1 cells co-transfected with c-myb and p53^tsneo, _._._). Viable cells were isolated by centrifugation through Ficoll-paque (Pharmacia). […] This is in contrast to untransfected control DP16-1 cells which, when grown in media containing DMSO, downregulate c-myb mRNA and differentiate while remaining viable (FIG. 8A & 8B). As expected, the p53^ts protein was located in the cytoplasm of the cells growing at 37.5° C. in the absence of DMSO (FIG. 9A, panel a; C4 p53^tsneo DP16-1 cells). […] Thus despite the fact that the cells were grown at 37.5° C., DMSO caused the p53^ts to behave as wild-type p53 tumor suppressor and induced apoptotic cell death. MEL cells can also exit the cell cycle by being stimulated to terminally differentiate. DMSO was used to induce differentiation of p53^tsneo clones at 37.5° C. After 5 days exposure to 1.6% DMSO, viable cells were isolated by centrifugation through Ficoll-paque. […] These cells were placed at 32.5° C. and viability monitored. […]

Data set [2] deals with c-myc transfected DP16-1 cells. Description: DMSO-induced differentiation of c-myc transfected DP16-1 cells, benzidine staining. It is filed as cell-based, mouse. The note with it: two days of exposure to medium containing DMSO.
Excerpt: as §1

Data set [3] has as its system p53^tsneo/pMbm1-dhfr co-transfectants (DP16-1 MEL cells). Description: Viability of amplified p53^tsneo/pMbm1-dhfr co-transfectants in 1.6% DMSO. It is filed as cell-based, mouse. The note with it: amplified c-myb cultures. From the text:
To determine how c-myb and p53 interact during MEL cell growth and differentiation, DP16-1 cells were co-transfected with p53^tsneo and pMbm1-dhfr, which encodes a full-length c-myb cDNA under the control of an SV40 promoter (Clarke, et al., supra). […] (FIG. 9A; panel c, C5a p53^tsneo/c-myb transfected DP16-1 cells; panel d, C5a cells). Instead, these cells proliferated for 2-3 days, and then arrested coincident with an increase in benzidine-positive cells (FIG. 11). Viability decreased only after the majority of cells had differentiated. Increased expression of c-myb was selected for by growing transfected cells in higher concentrations of methotrexate (Clarke et al., supra).

For data set [4], the system named is clones C9, C2 and C1 (p53^tsneo transfected DP16-1 MEL cells). Description: Viability of G1-arrested p53tsneo clones (mimosine growth arrest). It is filed as cell-based. The note with it: mouse, 36 h, 300 μM. The method, then: (§2) The relationship of p53 induced cell death to the cell cycle was studied in transfected clone C9. Clone C9 cells were synchronized in G0/G1 by density arrest (typically at a concentration of 1-2×10^6 cells/ml) for 48-72 hours at 37.5° C. Cells were stimulated to begin cycling by replating into fresh media at a 1:10 split ratio. Growth arrest with mimosine (Sigma) was accomplished by the addition of 300 μM mimosine to logarithmically growing cells for a period of 24 hours.
(§3) To rule out that G1 arrest alone induces cell death, clones C9, C2 and C1 were growth arrested with either mimosine (300 μM) (Watson et al., Cytometry 12:242 (1991)) or isoleucine deprivation (Heintz et al., Proc. Natl. Acad. Sci. USA 79:4083 (1982)) at 37.5° C., both of which result in late Gi arrest.

Assay in data set [5]: as above
The note with it: mouse, clones C9, C2 and C1 (p53tsneo transfected DP16-1 MEL cells); mimosine 300 μM, late G1 arrest at 37.5° C., after 3-4 days of arrest. It is filed as cell-based. How it is done:
as §2, §3

The test system of data set [6] is CML cells in bone marrow cell culture. Description: Purging CML cells from low density mononuclear bone marrow cells with antisense myb. The note with it: 40 μg/ml, culture changed two times a day for 1-to-three days, after MIP-1α 300 μg/ml for 24 hours. It is filed as cell-based. From the text:
The most successful purging of bone marrow cells includes from one-to-three non-overlapping techniques. CML cells display antigens which are not present on the hematopoietic stem cells. A large majority of the CML cells that contaminant Marrow samples can initially be removed using antibodies that recognize these CML-specific antigens. Antibodies that can be used include specificities directed to one or more of the following antigens: CD15, CD33, Glycophorin A, CD10, CD2, CD4 and CD8. Antibody-cell conjugates can be removed by either flow cytometry, immuno-magnetic beads or compliment, for example. The remaining CML cells can be killed by incubating the enriched culture in the presence of c-myb antisense oligonucleotides.
Briefly, mononuclear cells will be isolated from a 5 ml bone marrow aspirate by centrifuging through a ficol-hypaque density gradient. The isolated bone marrow cells (1×10^5 CD34+ progenitor cells) are then cultured in Dexter medium with IL3, SGF and EPO and macrophage inflammatory factor (MIP-1α; 300 μg/ml) for 24 hours and then are cultured in medium containing c-myb antisense oligonucleotides. MIP-1α arrests normal hematopoietic cells in G0 and these cells will therefore be resistant to c-myb antisense. The CML cells, however, are unresponsive to MIP-1α and will continue to cycle. […]

Consider `C[S+](C)[O-]` [DMSO, dimethyl sulfoxide], for which the Differentiation entry in the data set on parental DP16-1 cells is reported as “remained largely undifferentiated”. In data set [1], the “Period over which cells died after growth arrest” value lay within 48 to 96 h. Besides, the Benzidine positivity in the data set with p53^tsneo clones is on record as 70-80%. Also, the Cells differentiated in data set [2] is on record as 70-80%. The “Time to loss of viability” value in data set [3] lay within 10 to 14 days.

Usually viability stands for a per cent measure of how many cells are alive, often set against a control. Consider `NC(Cn1ccc(=O)c(O)c1)C(=O)O` (centres unmarked) [mimosine], for which the Viability entry in data set [4] was “less than 5%”. Besides, the viability at 300 μM in data set [5] was around 70%.

“c-myb antisense: c-myb antisense oligonucleotide 5′-GTGCCGGGGTCTTCGGGC-3′ (chemistry not given here)”: the “Cells remaining viable in culture” value in data set [6] is given as “only the normal hematopoietic cells”.
